The record followed here is patent US8481727B2, “Crystals of hydrochloride of pyridazin-3(2H)-one compound and process for production of same” (Nissan Chemical Industries, Ltd., priority 2008, dated 2013).

A short description of this series: Dissolution test, paddle method in Japanese Pharmacopoeia (Test Example 1). It is filed as physicochemical. Conditions: about 10 mg in 900 ml test fluid, 50 rpm; dissolution test first fluid (pH 1.2) and second fluid (pH 6.8); sampling at 10, 30, 60 and 120 minutes; UV measurement; compared with A-form crystal. Here is the method: About 10 mg of each of A-form crystal (Form A) obtained in Example 1, B-form crystal (Form B) obtained in Example 2 and H-form crystal (Form H) obtained in Example 3 was sampled, and a test was carried out at 50 rpm by the dissolution test method paddle method in Japanese Pharmacopoeia using 900 ml of a test fluid. Upon expiration of 10 minutes, 30 minutes, 60 minutes and 120 minutes after initiation of the test, sampling was carried out, and UV measurements were carried out, whereupon the dissolution ratios were calculated. Here, as the dissolution tester, NTR-VS6P manufactured by TOYAMA SANGYO CO., LTD. was used; as the spectrophotometer, UV-2400PC manufactured by Shimadzu Corporation was used; and as the test fluid, the dissolution test first fluid (pH 1.2) and second fluid (pH 6.8) were used. The results are shown in FIGS. 3 and 4 (the ordinate represents the dissolution ratio (%), and the abscissa represents the dissolution time (minutes)).

In the case of `Cl.O=c1[nH]nc(OCCCc2ccc(Cl)cc2)c(NCc2cccnc2)c1Br` [B-form crystal, 4-bromo-6-(3-(4-chlorophenyl)propoxy)-5-(pyridin-3-ylmethylamino)pyridazin-3(2H)-one mono-hydrochloride], the “solubility (dissolution ratio)” value was “superior to A-form crystal in solubility”.
